# Source: patent EP2236157A1 (PharmaNeuroBoost N.V., priority 2009, dated 2010)
# Tests used:
# other 5HT receptors = assay: receptor binding affinity (pKi)
# D4 receptor = target: T1, D4 receptor (Homo sapiens, UniProt P21917); assay: receptor binding affinity (pKi); settings: read-out: pKi value towards the D4 receptor (converted)
# T1 sequence (P21917 1-419): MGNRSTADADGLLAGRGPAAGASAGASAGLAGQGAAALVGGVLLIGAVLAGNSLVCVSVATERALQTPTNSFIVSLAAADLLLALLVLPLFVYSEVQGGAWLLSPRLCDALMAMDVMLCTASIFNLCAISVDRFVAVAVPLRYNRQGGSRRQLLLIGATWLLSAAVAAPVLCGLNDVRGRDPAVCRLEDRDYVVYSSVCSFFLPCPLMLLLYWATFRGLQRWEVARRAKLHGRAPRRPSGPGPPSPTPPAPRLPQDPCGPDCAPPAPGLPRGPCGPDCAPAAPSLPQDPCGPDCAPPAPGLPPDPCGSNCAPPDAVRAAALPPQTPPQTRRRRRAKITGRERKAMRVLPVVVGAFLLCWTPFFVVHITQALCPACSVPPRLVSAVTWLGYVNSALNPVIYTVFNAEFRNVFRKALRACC
# other dopamine receptors = assay: receptor binding affinity (pKi)
# [1] = test system: adrenergic receptors α-1A, α-2A, α-2B, α-2C, β-1, β-2, and the histamine receptor H1; assay: receptor binding affinity (Table 1); settings: β-1, β-2 and histamine receptor H1
# [2] = test system: patients with major depression; assay: semi-naturalistic open label study of combo pipamperone-citalopram in major depression (Example 2); assay type: in vivo
# Text: This semi-naturalistic open label study investigated the efficacy and tolerability of the combo pipamperone - citalopram in the treatment of patients with major depression.
# • Design: Semi-naturalistic i.e. inclusion of every 'natural' patient in an outpatient practice but without concomitant use of mood enhancing drugs, open label • Control: No • Phase: Phase IIa - preliminary Proof of Concept • Location: Belgium - Research Centre ANIMA, Alken • End Points : Assessment scale scores, Hamilton Depression Rating Scale 17 items, Reduction, Response, Remission • Medication: Exclusion of mood stabilisers, antipsychotics (typical and atypical) and other antidepressants
# Patients have a major depressive disorder according to DSM-IV criteria, with or without a chronic course and a treatment refractory state towards another SSRI than citalopram. […]
# Adverse events are assessed on: body as a whole, central and peripheral nervous system, gastrointestinal, musculoskeletal, psychiatric, respiratory, skin and appendages, vascular and urinary, taking into account discontinued treatment due to adverse events. Laboratory parameters, ECG, bodyweight and vital signs are not measured since this is a naturalistic study.
# patients with OCD = assay: semi-naturalistic open label study of combo pipamperone-citalopram in obsessive-compulsive disorder (Example 4); assay type: in vivo; settings: pipamperone 16-19 mg/day + citalopram 30-60 mg/day
# Protocol: This semi-naturalistic open label study investigates the efficacy and tolerability of the combo pipamperone - citalopram in the treatment of patients with OCD.
# Characteristics: patients have an obsessive-compulsive disorder according to DSM-IV criteria, with or without a chronic course and a treatment refractory state towards another SSRI than citalopram.
# Treatment with the combo pipamperone-citalopram (n = 7). Treatment with fluvoxamine (controlled release) mean 271 mg/day (n = 253) is according to Hollander et al. (2003).
# The intention-to-treat/last-observation-carried-forward analysis is evaluated relating to therapeutic efficacy according Y-BOCS total score, obsession and compulsion scores.
compound,measurement,setting,value
"NC(=O)C1(N2CCCCC2)CCN(CCCC(=O)c2ccc(F)cc2)CC1 [pipamperone, 1'-[3-(p-Fluorobenzoyl)propyl]-[1,4'-bipiperidine]-4'-carboxamide]",pKi value towards other 5HT receptors,other 5HT receptors,less than 8
same,Ki,D4 receptor,≤ 10 nM
same,pKi value towards other dopamine receptors,other dopamine receptors,less than 8
same,affinity for other receptors,[1],low or absence of affinity
same,sedative effects,"[2]; major depression study, pipamperone 16-19 mg/day",lacking
same,boosting effect on a SSRI (citalopram),"[2]; major depression, pipamperone 16-19 mg/day + citalopram 10-20 mg/day, PO, 8 weeks",apparent
same,sedative effects,patients with OCD,lacking
